Patent US5656440A, “Nucleotide sequences coding for the bovine β3 -adrenergic receptor (ARβ3) and their applications” (Virbac, priority 1993, dated 1997)
Like-named read-outs stand apart in the source and are kept apart here.

Key:
human ARβ3 receptor [1] = details: cited from earlier work; for Accumul. cAMP IA (intrinsic activity) / EC50: Human RAβ3-CHO; for Accumul. cAMP IA (intrinsic activity): ratio of effect of ligand at 10^-4 M to effect of isoproterenol at 10^-4 M, 100 µM; for EC50: read-out: Accumul. cAMP Kact (adenylate cyclase activation constant); for functional character (agonist/antagonist): human ARβ3
bovine ARβ3 receptor [2] = molecular target: T1, bovine ARβ3 receptor (Bos taurus, UniProt P46626); test: adenylate cyclase activation (cAMP accumulation) in CHO cells, bovine receptor (clone 62-26); type: cell-based; set-up: Emax: dose or concentration left out as unconfirmed; details: for Emax: CHO; for Emax / Emax at 100 µM: 0.5 h, read-out: Accumul. cAMP IA (intrinsic activity)
T1 construct: to liberate the 1598-base pair fragment containing the coding region of the bovine β3 gene; expressed in transfected cells
T1 sequence (P46626 whole entry, the tested form may be a part): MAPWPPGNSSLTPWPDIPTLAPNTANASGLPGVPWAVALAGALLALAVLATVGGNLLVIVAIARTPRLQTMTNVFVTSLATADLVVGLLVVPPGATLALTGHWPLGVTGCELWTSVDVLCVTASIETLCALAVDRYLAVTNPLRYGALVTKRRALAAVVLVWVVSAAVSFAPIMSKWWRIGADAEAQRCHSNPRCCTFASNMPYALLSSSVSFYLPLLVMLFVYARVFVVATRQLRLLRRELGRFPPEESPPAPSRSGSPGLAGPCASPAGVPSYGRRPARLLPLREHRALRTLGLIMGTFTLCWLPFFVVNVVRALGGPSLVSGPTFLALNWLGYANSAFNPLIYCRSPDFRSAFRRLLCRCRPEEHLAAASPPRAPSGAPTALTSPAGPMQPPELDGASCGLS
Experimental: Briefly, preconfluent cells in six-well plates (0.6×10^6 cells/well) are placed in contact or otherwise with increasing doses of ligands for 30 minutes at 37° C. Reaction is stopped by washing in PBS at 4° C. and adding 500 μl of 1N NaOH. After centrifugation and neutralization with 1N acetic acid, the cell lysates are recovered and the total amount of cAMP accumulated is determined using a commercial assay kit.

β1 -, β2 - and β3 -AR = details: β1, β2, β3 subtypes; cited from earlier work
human ARβ3 receptor [3] = details: Human RAβ3-CHO; read-out: Binding Ki; cited from earlier work
mouse ARβ3 receptor [4] = details: Mouse RAβ3-CHO; read-out: Binding Ki; cited from earlier work
bovine ARβ3 receptor [5] = molecular target: T1, bovine ARβ3 receptor; test: competitive binding of ligands against [^125 I]cyanopindolol on intact CHO cells, bovine receptor (clone 62-26)
Experimental: Reaction is stopped by dilution with ice-cold PBS, the cells are filtered off and the radioactivity is measured in a gamma counter. The results were analysed using Graph-Pad.COPYRGT. software.

mouse ARβ3 receptor [6] = details: cited from earlier work; for Accumul. cAMP IA (intrinsic activity) / EC50: Mouse RAβ3-CHO; for Accumul. cAMP IA (intrinsic activity): ratio of effect of ligand at 10^-4 M to effect of isoproterenol at 10^-4 M, 100 µM; for EC50: read-out: Accumul. cAMP Kact (adenylate cyclase activation constant); for functional character (agonist/antagonist): mouse ARβ3
bovine ARβ3 = test: binding of [^125 I]cyanopindolol to transfected cells stably expressing ARβ3
Source text: Stable colonies are screened for their capacity to bind specifically to [^125 I]cyanopindolol and also for their capacity to stimulate adenylate cyclase in the presence of isoproterenol, in accordance with protocol described in TATE et al., Eur. J. Biochem., 191, 196, 357-361.

[7] = BovineRAβ3-CHO, ratio of effect of ligand at 10^-4 M to effect of isoproterenol at 10^-4 M
[8] = BovineRAβ3-CHO, 30 minutes at 37° C., read-out: Accumul. cAMP Kact (adenylate cyclase activation constant)
[9] = BovineRAβ3-CHO, 0.5 nM [^125 I]cyanopindolol, 30 minutes at 37° C., read-out: Binding Ki

Row | Emax at 100 µM (bovine ARβ3 receptor [2]; [7]) [%] | EC50 (bovine ARβ3 receptor [2]; [8]) [nM] | functional character (agonist/antagonist) (bovine ARβ3 receptor [2]; bovine ARβ3) | Ki (bovine ARβ3 receptor [5]; [9]) [nM] | Accumul. cAMP IA (intrinsic activity) (bovine ARβ3 receptor [2]; BovineRAβ3-CHO, ratio of effect of ligand at 10^-4 M to effect of isoproterenol at 10^-4 M, 30 min, 100 µM) | SMILES | Accumul. cAMP IA (intrinsic activity) (human ARβ3 receptor [1]) | EC50 (human ARβ3 receptor [1]) [nM] | EC50 (bovine ARβ3 receptor [2]) [nM] | Emax (bovine ARβ3 receptor [2]) [%] | described agonist/antagonist class (β1 -, β2 - and β3 -AR) | Ki (human ARβ3 receptor [3]) [nM] | Ki (mouse ARβ3 receptor [4]) [nM] | Ki (bovine ARβ3 receptor [5]) [nM] | Accumul. cAMP IA (intrinsic activity) (mouse ARβ3 receptor [6]) | EC50 (mouse ARβ3 receptor [6]) [nM] | functional character (agonist/antagonist) (human ARβ3 receptor [1]) | functional character (agonist/antagonist) (human ARβ3 receptor [1]; listed as bupranolol) | functional character (agonist/antagonist) (mouse ARβ3 receptor [6]) | functional character (agonist/antagonist) (mouse ARβ3 receptor [6]; listed as bupranolol) | binding affinity compared to ARβ3 in man or in mouse (bovine ARβ3)
1 | – | – | – | – | – | C[C@H](Cc1ccc(OCC(=O)O)cc1)NC[C@H](O)c1cccc(Cl)c1 (relative stereo) [BRL 37344] | 1.11 ± 0.12 | 15 ± 3 | 0.3 | 84 ± 10 | β1 -, β2 - and β3 -AR-receptor agonists | 287 ± 92 | 290 ± 136 | 2.13 ± 1.4 | 1.07 ± 0.08 | 0.4 ± 0.1 | – | – | – | – | –
2 | 34 ± 1 | 507 | partial agonist | 85 ± 40 | – | Cc1ccc(Cl)c(OCC(O)CNC(C)(C)C)c1 (single isomer, unassigned; (-)) [(-) bupranolol, bupranolol] | – | – | – | – | antagonist of the three subtypes of receptor | 50 ± 14 | 42 ± 19 | – | – | – | antagonist | potent antagonist | antagonist | potent antagonist | –
3 | – | – | – | – | – | CC(C)NCC(O)c1ccc(O)c(O)c1 (single isomer, unassigned; (-)) [(-) isproterenol, (-)-iso-proterenol] | – | – | 14 ± 2 | 90 ± 10 | β1 -, β2 - and β3 -AR-receptor agonists | 620 | – | 84 ± 81 | – | – | – | – | – | – | –
4 | – | – | – | – | – | CC(C)NC[C@H](O)COc1cccc2ccccc12 [(- ) propranolol, (-)-propranolol] | 0.51 ± 0.12 | – | – | – | – | – | – | – | – | – | partial agonist | – | antagonist | – | –
5 | – | – | – | – | – | NC[C@H](O)c1ccc(O)c(O)c1 [(-) norepinephrine, (-)-norepinephrine] | 1.00 | 6.32 ± 0.7 | 54 ± 4.3 | 100 ± 50 | β1 -, β2 - and β3 -AR-receptor agonists | 475 ± 75 | 1840 | 423 ± 255 | 1.06 ± 0.06 | 13 ± 4 | – | – | – | – | –
6 | 99 ± 10 | 12.8 | – | 73 ± 42 | – | CC(C)(Cc1c[nH]c2ccccc12)NCC(O)COc1ccccc1C#N (stereo not drawn) [Bucindolol, bucindolol] | 1.01 ± 0.10 | 7 ± 1.2 | – | – | specific for the ARβ3 receptor (β1 -, β2 -AR antagonists) | 23 ± 10 | 21 ± 5 | – | 1.11 ± 0.06 | 40 ± 14 | – | – | – | – | –
7 | – | 1.1 | – | 27.7 ± 24 | 0.85 ± 0.1 | O=C(O)COc1ccc(OCCNCC(O)COc2ccccc2)cc1 (stereo not drawn) [ICI 201651] | 1.14 ± 0.14 | 20 ± 9 | – | – | specific for the ARβ3 receptor (β1 -, β2 -AR antagonists) | 85 ± 12 | 239 ± 104 | – | 1.02 ± 0.02 | 15 ± 1 | – | – | – | – | –
8 | – | – | – | – | – | CC(C)(C)NCC(O)COc1cccc2[nH]c(C#N)c([125I])c12 (stereo not drawn) [[^125 I]cyanopindolol] | – | – | – | – | – | – | – | – | – | – | – | – | – | – | affinity equivalent to that of the corresponding ARβ3 in man or in mouse

Row | SMILES | Emax at 100 µM (bovine ARβ3 receptor [2]; [7]) [%] | EC50 (bovine ARβ3 receptor [2]; [8]) [nM] | functional character (agonist/antagonist) (bovine ARβ3 receptor [2]; bovine ARβ3) | Ki (bovine ARβ3 receptor [5]; [9]) [nM] | Accumul. cAMP IA (intrinsic activity) (bovine ARβ3 receptor [2]; BovineRAβ3-CHO, ratio of effect of ligand at 10^-4 M to effect of isoproterenol at 10^-4 M, 30 min, 100 µM) | Accumul. cAMP IA (intrinsic activity) (human ARβ3 receptor [1]) | EC50 (human ARβ3 receptor [1]) [nM] | EC50 (bovine ARβ3 receptor [2]) [nM] | Emax (bovine ARβ3 receptor [2]) [%] | described agonist/antagonist class (β1 -, β2 - and β3 -AR) | Ki (human ARβ3 receptor [3]) [nM] | Ki (mouse ARβ3 receptor [4]) [nM] | Ki (bovine ARβ3 receptor [5]) [nM] | Accumul. cAMP IA (intrinsic activity) (mouse ARβ3 receptor [6]) | EC50 (mouse ARβ3 receptor [6]) [nM] | functional character (agonist/antagonist) (human ARβ3 receptor [1]) | functional character (agonist/antagonist) (human ARβ3 receptor [1]; listed as bupranolol) | functional character (agonist/antagonist) (mouse ARβ3 receptor [6]) | functional character (agonist/antagonist) (mouse ARβ3 receptor [6]; listed as bupranolol) | binding affinity compared to ARβ3 in man or in mouse (bovine ARβ3)
9 | CNC[C@H](O)c1ccc(O)c(O)c1 [(- ) epinephrine, (-)-epinephrine] | – | 50.7 | – | 11100 | – | 1.00 ± 0.04 | 49 ± 5 | – | 80 ± 30 | β1 -, β2 - and β3 -AR-receptor agonists | 20600 | 4600 | – | 0.91 ± 0.03 | 23 ± 0.3 | – | – | – | – | –
10 | CC(C)(C)NCC(O)COc1cccc2[nH]c(=O)[nH]c12 (stereo not drawn) [CGP 12177A] | 93 ± 20 | 1.41 | – | 218 ± 161 | – | 0.68 ± 0.02 | 139 ± 44 | – | – | specific for the ARβ3 receptor (β1 -, β2 -AR antagonists) | 88 ± 22 | 152 ± 19 | – | – | – | – | – | – | – | –
